Results published in ChEMBL document CHEMBL2029243, “Potent and selective pyrazolo[1,5-a]pyrimidine based inhibitors of B-Raf(V600E) kinase with favorable physicochemical and pharmacokinetic properties” (Bioorg Med Chem Lett, 2012).
≈ marks a conversion by molar mass, not a printed value.

Legend:
[1] = Volume of distribution in mouse at […], iv and 30 mg/kg, po; format: ADME, organism-based; settings: in vivo
[2] = Clearance in mouse at […], iv; format: ADME, organism-based; set-up: dose 2.5 mg/kg, route intravenous; settings: in vivo
[3] = AUC in mouse at 30 mg/kg, po administered with 40/10/50 volume of PEG400/EtOH/H2O solution; format: ADME, organism-based; set-up: dose 30 mg/kg, route oral; settings: plasma
[4] = Aqueous solubility of the compound at pH 1.2; format: physicochemical; settings: buffer
[5] = AUC in mouse at 30 mg/kg, po administered with 1% methylcellulose/0.5% Tween 80 in water; format: ADME, organism-based; set-up: dose 30 mg/kg, route oral; settings: in vivo
[6] = biological target: T1, Serine/threonine-protein kinase B-raf (Homo sapiens, UniProt P15056, V600E)
T1 sequence (P15056 2-766 V600E limits assumed): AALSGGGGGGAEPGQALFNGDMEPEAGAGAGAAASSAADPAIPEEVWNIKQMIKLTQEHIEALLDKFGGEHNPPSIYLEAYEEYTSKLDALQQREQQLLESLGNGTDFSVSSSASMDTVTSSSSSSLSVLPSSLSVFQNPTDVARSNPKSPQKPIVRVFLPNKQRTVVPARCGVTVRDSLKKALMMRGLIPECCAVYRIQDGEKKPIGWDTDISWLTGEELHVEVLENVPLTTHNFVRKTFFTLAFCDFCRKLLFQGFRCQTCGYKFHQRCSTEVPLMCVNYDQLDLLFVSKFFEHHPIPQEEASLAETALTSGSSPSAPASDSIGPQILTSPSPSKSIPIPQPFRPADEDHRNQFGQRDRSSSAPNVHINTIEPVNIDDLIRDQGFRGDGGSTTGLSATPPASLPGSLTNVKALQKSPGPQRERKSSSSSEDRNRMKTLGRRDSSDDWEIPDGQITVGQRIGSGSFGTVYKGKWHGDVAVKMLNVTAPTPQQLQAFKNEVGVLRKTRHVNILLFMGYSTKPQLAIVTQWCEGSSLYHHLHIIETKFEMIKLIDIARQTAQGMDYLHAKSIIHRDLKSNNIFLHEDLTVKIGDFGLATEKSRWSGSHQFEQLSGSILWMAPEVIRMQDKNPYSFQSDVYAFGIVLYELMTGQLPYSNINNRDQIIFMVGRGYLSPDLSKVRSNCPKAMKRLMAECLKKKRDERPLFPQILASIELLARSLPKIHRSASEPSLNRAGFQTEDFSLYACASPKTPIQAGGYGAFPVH

[7] = biological target: T1, Serine/threonine-protein kinase B-raf; remark: listed apart in the source
physchem [8] = settings: buffer, pH 6.5
Description: Aqueous solubility of the compound at pH 6.5

[9] = Oral bioavailability in mouse at 30 mg/kg; format: ADME, organism-based; settings: in vivo
physchem [10] = settings: buffer, pH 7.4
Description: Aqueous solubility of the compound at pH 7.4

in vitro = settings: human, Caco-2
Description: Permeability across human Caco2 cells

Row | Structure (SMILES) | IC50 [6] | IC50 [7] | further results
1 | CCCS(=O)(=O)Nc1ccc(F)c(C(=O)Nc2cnc3[nH]nc(OC)c3c2)c1F | 5 nM |  | Vd [1]: 0.11 L/kg; clearance [2]: 1.3 mL/min/kg; AUC [3]: 426 µM·h; solubility [4]: 3 µg/mL (≈ 7.05 µM); AUC [5]: 105 µM·h
2 | CCCS(=O)(=O)Nc1ccc(F)c(C(=O)Nc2cnc3ccccc3c2)c1F | 464 nM | 1380 nM | 
3 | CCCS(=O)(=O)Nc1ccc(F)c(C(=O)Nc2cnc3occc3c2)c1F | > 10000 nM |  | 
4 | CCCS(=O)(=O)Nc1ccc(F)c(C(=O)Nc2cnc3nccn3c2)c1F | > 10000 nM |  | 
5 | CCCS(=O)(=O)Nc1ccc(F)c(C(=O)Nc2cnc3ccnn3c2)c1F | 247 nM | 488 nM | 
6 | CCCS(=O)(=O)Nc1ccc(F)c(C(=O)Nc2cnc3cc(C)nn3c2)c1F | 131 nM | 248 nM | 
7 | CCCS(=O)(=O)Nc1ccc(F)c(C(=O)Nc2cnc3cc(C4CC4)nn3c2)c1F | 124 nM | 299 nM | 
8 | CCCS(=O)(=O)Nc1ccc(F)c(C(=O)Nc2cnc3cc(NC)nn3c2)c1F | 129 nM | 382 nM | 
9 | CCCS(=O)(=O)Nc1ccc(F)c(C(=O)Nc2cnc3cc(NC(C)C)nn3c2)c1F | 190 nM | 395 nM | 
10 | CCCS(=O)(=O)Nc1ccc(F)c(C(=O)Nc2cnc3cc(OCC)nn3c2)c1F | 83 nM | 205 nM | 
11 | CCCS(=O)(=O)Nc1ccc(F)c(C(=O)Nc2cnc3cc(OC(C)C)nn3c2)c1F | 149 nM | 449 nM | 
12 | CCCS(=O)(=O)Nc1ccc(F)c(C(=O)Nc2cnc3cc(OCCOC)nn3c2)c1F | 67 nM | 110 nM | 
13 | CCCS(=O)(=O)Nc1ccc(F)c(C(=O)Nc2cnc3cc(-c4cccc(F)c4)nn3c2)c1F | 19 nM | 60 nM | 
14 | CCCS(=O)(=O)Nc1ccc(F)c(C(=O)Nc2cnc3cc(-c4ccc(F)cc4)nn3c2)c1F | 11 nM | 54 nM | 
15 | CCCS(=O)(=O)Nc1ccc(F)c(C(=O)Nc2cnc3cc(-c4cccnc4)nn3c2)c1F | 13 nM | 27 nM | 
16 | CCCS(=O)(=O)Nc1ccc(F)c(C(=O)Nc2cnc3cc(-c4cnn(C)c4)nn3c2)c1F | 13 nM | 48 nM | 

Further lines, with some results ahead:

Row | IC50 [6] | IC50 [7] | Structure (SMILES) | further results
17 | 407 nM | 1510 nM | CCCS(=O)(=O)Nc1ccc(F)c(C(=O)Nc2cnc3cc[nH]c3c2)c1F | 
18 | 105 nM | 228 nM | CCCS(=O)(=O)Nc1ccc(F)c(C(=O)Nc2cnc3cc(CC)nn3c2)c1F | 
19 | 128 nM | 448 nM | CCCS(=O)(=O)Nc1ccc(F)c(C(=O)Nc2cnc3cc(C4CCCC4)nn3c2)c1F | 
20 | 126 nM | 374 nM | CCCS(=O)(=O)Nc1ccc(F)c(C(=O)Nc2cnc3cc(C(F)(F)F)nn3c2)c1F | 
21 |  | 664 nM | CCCS(=O)(=O)Nc1ccc(F)c(C(=O)Nc2cnc3cc(N4CCCC4)nn3c2)c1F | 
22 | 174 nM | 315 nM | CCCS(=O)(=O)Nc1ccc(F)c(C(=O)Nc2cnc3cc(N4CCOCC4)nn3c2)c1F | 
23 | 43 nM | 68 nM | CCCS(=O)(=O)Nc1ccc(F)c(C(=O)Nc2cnc3cc(OC)nn3c2)c1F | solubility (physchem [8]): 21 µg/mL (≈ 49.4 µM); bioavailability [9]: 98%; Vd [1]: 0.16 L/kg; clearance [2]: 1 mL/min/kg; solubility (physchem [10]): 32 µg/mL (≈ 75.2 µM); AUC [3]: 733 µM·h; solubility [4]: 18 µg/mL (≈ 42.3 µM); Papp (in vitro): 2 ×10⁻⁶ cm/s; AUC [5]: 844 µM·h
